Experimental data reported in ChEMBL document CHEMBL3046926, “Molecular properties prediction, synthesis, and diuretic activity of phenoxy acetic acid bearing pyrazolines” (2013).

How the values were obtained:
Rattus norvegicus [1] = experiment: Induction of diuresis activity in Rattus norvegicus albino (rat) assessed as urinary excretion at 1000 mg/kg, po measured at 5-18 hr after drug administration by standard Lipschitz method against frusemide-treated control (reference value: 0.2 no unit); format: functional, Urine
Rattus norvegicus [2] = experiment: Induction of diuresis action in Rattus norvegicus albino (rat) assessed as urinary excretion at 1000 mg/kg, po measured at 5-18 hr after drug administration by standard Lipschitz method against untreated control (reference value: 1 no unit); format: functional, Urine
Rattus norvegicus [3] = experiment: Induction of diuresis activity in Rattus norvegicus albino (rat) assessed as urinary excretion at 1000 mg/kg, po measured at 0-5 hr after drug administration by standard Lipschitz method against frusemide-treated control (reference value: 0.5 no unit); format: functional, Urine
Rattus norvegicus [4] = experiment: Induction of diuresis action in Rattus norvegicus albino (rat) assessed as urinary excretion at 1000 mg/kg, po measured at 0-5 hr after drug administration by standard Lipschitz method against untreated control (reference value: 1 no unit); format: functional, Urine
Rattus norvegicus [5] = experiment: Induction of diuresis in Rattus norvegicus albino (rat) assessed as urinary Cl- excretion at 1000 mg/kg, po measured at 5-18 hr after drug administration by standard Lipschitz method (reference value: 0.38 +/-0.011 mEq/L); format: functional, Urine
Rattus norvegicus [6] = experiment: Induction of diuresis in Rattus norvegicus albino (rat) assessed as urinary K+ excretion at 1000 mg/kg, po measured at 5-18 hr after drug administration by standard Lipschitz method (reference value: 0.22 +/-0.004 mEq/L); format: functional, Urine
Rattus norvegicus [7] = experiment: Induction of diuresis in Rattus norvegicus albino (rat) assessed as urinary Na+ excretion at 1000 mg/kg, po measured at 5-18 hr after drug administration by standard Lipschitz method (reference value: 0.65 +/-0.006 mEq/L); format: functional, Urine
Rattus norvegicus [8] = experiment: Induction of diuresis in Rattus norvegicus albino (rat) assessed as urinary Na+ excretion at 1000 mg/kg, po measured at 0-5 hr after drug administration by standard Lipschitz method (reference value: 0.90 +/-0.003 mEq/L); format: functional, Urine
Rattus norvegicus [9] = experiment: Induction of diuresis in Rattus norvegicus albino (rat) assessed as urinary excretion at 1000 mg/kg, po measured at 5-18 hr after drug administration by standard Lipschitz method (reference value: 50.4%); format: functional, Urine
Rattus norvegicus [10] = experiment: Induction of diuresis in Rattus norvegicus albino (rat) assessed as normal saline intake at 1000 mg/kg, po measured at 5-18 hr after drug administration by standard Lipschitz method (reference value: 2.50 +/-0.036 ml); format: functional
Rattus norvegicus [11] = experiment: Induction of diuresis in Rattus norvegicus albino (rat) assessed as total urinary output at 1000 mg/kg, po measured at 5-18 hr after drug administration by standard Lipschitz method (reference value: 1.26 +/-0.049 ml); format: functional, Urine
Rattus norvegicus [12] = experiment: Induction of diuresis in Rattus norvegicus albino (rat) assessed as urinary excretion at 1000 mg/kg, po measured at 0-5 hr after drug administration by standard Lipschitz method (reference value: 98.40%); format: functional, Urine
Rattus norvegicus [13] = experiment: Induction of diuresis in Rattus norvegicus albino (rat) assessed as urinary Cl- excretion at 1000 mg/kg, po measured at 0-5 hr after drug administration by standard Lipschitz method (reference value: 0.46 +/-0.005 mEq/L); format: functional, Urine
Rattus norvegicus [14] = experiment: Induction of diuresis in Rattus norvegicus albino (rat) assessed as urinary K+ excretion at 1000 mg/kg, po measured at 0-5 hr after drug administration by standard Lipschitz method (reference value: 0.46 +/-0.006 mEq/L); format: functional, Urine
Rattus norvegicus [15] = experiment: Induction of diuresis in Rattus norvegicus albino (rat) assessed as normal saline intake at 1000 mg/kg, po measured at 0-5 hr after drug administration by standard Lipschitz method (reference value: 2.50 +/-0.036 ml); format: functional
Rattus norvegicus [16] = experiment: Induction of diuresis in Rattus norvegicus albino (rat) assessed as total urinary output at 1000 mg/kg, po measured at 0-5 hr after drug administration by standard Lipschitz method (reference value: 2.46 +/-0.125 ml); format: functional, Urine

SMILES: NC(N)=O [UREA]
- Ratio (Rattus norvegicus [1]): 0.93
- Ratio (Rattus norvegicus [2]): 4.6
- Ratio (Rattus norvegicus [3]): 0.96
- Ratio (Rattus norvegicus [4]): 1.9
- Activity (Rattus norvegicus [5]): 1.94 mEq/L
- Activity (Rattus norvegicus [6]): 2.82 mEq/L
- Activity (Rattus norvegicus [7]): 2.82 mEq/L
- Activity (Rattus norvegicus [8]): 1.91 mEq/L
- Activity (Rattus norvegicus [9]): 230.76%
- Activity (Rattus norvegicus [10]): 2.73 mL
- Activity (Rattus norvegicus [11]): 6.3 mL
- Activity (Rattus norvegicus [12]): 187.91%
- Activity (Rattus norvegicus [13]): 0.95 mEq/L
- Activity (Rattus norvegicus [14]): 0.94 mEq/L
- Activity (Rattus norvegicus [15]): 2.73 mL
- Activity (Rattus norvegicus [16]): 5.13 mL
